Experimental data taken from the supplement of paper PMC10307832.

Legend:
Test in all cases: relative viability (nuclei count vs DMSO), 5 days (fraction); higher = more cells survive
[1] = test system: EPLC-272H
How it was run: (§1)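 Each reported value is a median over duplicate plates. It expresses relative viability: treated-well nuclei count divided by vehicle-well nuclei count. Lung cancer cell lines in 1536-well plates were dosed by pin tool a day after seeding, alone with one drug or with a fixed anchor-drug dose plus five library-drug doses (not always all listed) in √10 steps, and nuclei were counted after 5 days.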

[2] = test system: NCI-H2405
How it was run: as §1

[3] = test system: NCI-H1975
How it was run: as §1

[4] = test system: LCLC-97TM1
How it was run: as §1

[5] = test system: NCI-H520
How it was run: as §1

[6] = test system: CAL-12T
How it was run: as §1

[7] = test system: NCI-H1563
How it was run: as §1

[8] = test system: NCI-H1792
How it was run: as §1

[9] = test system: NCI-H838
How it was run: as §1

[10] = test system: A-427
How it was run: as §1

[11] = test system: NCI-H1915
How it was run: as §1

[12] = test system: LC-2-ad
How it was run: as §1

[13] = test system: UMC-11
How it was run: as §1

[14] = test system: SW 1573
How it was run: as §1

[15] = test system: HCC-15
How it was run: as §1

[16] = test system: NCI-H2023
How it was run: as §1

[17] = test system: HCC-44
How it was run: as §1

[18] = test system: COR-L 105
How it was run: as §1

[19] = test system: NCI-H2347
How it was run: as §1

[20] = test system: NCI-H1734
How it was run: as §1

Cc1csc(=NC2CCCCC2)n1/N=C/c1ccc(O)c(O)c1O [MIM1] + CC(C)C[C@H](NC(=O)[C@H](Cc1ccccc1)NC(=O)c1cnccn1)B(O)O [Bortezomib] (partner 0.002 µM)
relative viability ([1]; first compound 0.2 µM): 0.805 | relative viability ([1]; first compound 0.6325 µM): 0.796 | relative viability ([1]; first compound 2 µM): 0.588 | relative viability ([1]; first compound 6.325 µM): 0.732 | relative viability ([1]; first compound 20 µM): 0.483 | relative viability ([2]; first compound 0.2 µM): 0.959 | relative viability ([2]; first compound 0.6325 µM): 1.01 | relative viability ([2]; first compound 2 µM): 0.961 | relative viability ([2]; first compound 6.325 µM): 0.788 | relative viability ([2]; first compound 20 µM): 0.358 | relative viability ([3]; first compound 0.2 µM): 0.428 | relative viability ([3]; first compound 0.6325 µM): 0.381 | relative viability ([3]; first compound 2 µM): 0.377 | relative viability ([3]; first compound 6.325 µM): 0.231 | relative viability ([3]; first compound 20 µM): 0.221 | relative viability ([4]; first compound 0.2 µM): 0.66 | relative viability ([4]; first compound 0.6325 µM): 0.811 | relative viability ([4]; first compound 2 µM): 0.214 | relative viability ([4]; first compound 6.325 µM): 0.346 | relative viability ([4]; first compound 20 µM): 0.0592 | relative viability ([5]; first compound 0.2 µM): 0.721 | relative viability ([5]; first compound 0.6325 µM): 0.353 | relative viability ([5]; first compound 2 µM): 0.684 | relative viability ([5]; first compound 6.325 µM): 0.401 | relative viability ([5]; first compound 20 µM): 0.184 | relative viability ([6]; first compound 0.2 µM): 1.01 | relative viability ([6]; first compound 2 µM): 1.04 | relative viability ([6]; first compound 6.325 µM): 0.867 | relative viability ([6]; first compound 20 µM): 0.429 | relative viability ([7]; first compound 0.2 µM): 0.894 | relative viability ([7]; first compound 0.6325 µM): 0.96 | relative viability ([7]; first compound 2 µM): 0.744 | relative viability ([7]; first compound 6.325 µM): 0.563 | relative viability ([7]; first compound 20 µM): 0.465 | relative viability ([8]; first compound 0.2 µM): 0.852 | relative viability ([8]; first compound 0.6325 µM): 0.921 | relative viability ([8]; first compound 2 µM): 0.922 | relative viability ([8]; first compound 6.325 µM): 0.452 | relative viability ([8]; first compound 20 µM): 0.851 | relative viability ([9]; first compound 0.2 µM): 0.869 | relative viability ([9]; first compound 0.6325 µM): 0.808 | relative viability ([9]; first compound 2 µM): 0.78 | relative viability ([9]; first compound 6.325 µM): 0.53 | relative viability ([9]; first compound 20 µM): 0.136 | relative viability ([10]; first compound 0.2 µM): 0.975 | relative viability ([10]; first compound 0.6325 µM): 0.865 | relative viability ([10]; first compound 2 µM): 0.972 | relative viability ([10]; first compound 6.325 µM): 0.847 | relative viability ([10]; first compound 20 µM): 0.234 | relative viability ([11]; first compound 0.2 µM): 0.989 | relative viability ([11]; first compound 0.6325 µM): 0.857 | relative viability ([11]; first compound 2 µM): 0.898 | relative viability ([11]; first compound 6.325 µM): 0.461 | relative viability ([11]; first compound 20 µM): 0.725 | relative viability ([12]; first compound 0.2 µM): 1.06 | relative viability ([12]; first compound 0.6325 µM): 0.545 | relative viability ([12]; first compound 2 µM): 0.986 | relative viability ([12]; first compound 6.325 µM): 0.383 | relative viability ([12]; first compound 20 µM): 0.201 | relative viability ([13]; first compound 0.2 µM): 0.646 | relative viability ([13]; first compound 0.6325 µM): 0.389 | relative viability ([13]; first compound 2 µM): 0.774 | relative viability ([13]; first compound 6.325 µM): 0.364 | relative viability ([13]; first compound 20 µM): 0.145 | relative viability ([14]; first compound 0.2 µM): 0.937 | relative viability ([14]; first compound 0.6325 µM): 1.05 | relative viability ([14]; first compound 2 µM): 0.978 | relative viability ([14]; first compound 6.325 µM): 0.811 | relative viability ([14]; first compound 20 µM): 0.592 | relative viability ([15]; first compound 0.2 µM): 1.05 | relative viability ([15]; first compound 0.6325 µM): 0.911 | relative viability ([15]; first compound 2 µM): 1.06 | relative viability ([15]; first compound 6.325 µM): 0.36 | relative viability ([15]; first compound 20 µM): 0.267 | relative viability ([16]; first compound 0.2 µM): 1.11 | relative viability ([16]; first compound 0.6325 µM): 0.916 | relative viability ([16]; first compound 2 µM): 0.765 | relative viability ([16]; first compound 6.325 µM): 0.35 | relative viability ([16]; first compound 20 µM): 0.0682 | relative viability ([17]; first compound 0.2 µM): 0.879 | relative viability ([17]; first compound 0.6325 µM): 0.816 | relative viability ([17]; first compound 2 µM): 0.84 | relative viability ([17]; first compound 6.325 µM): 0.446 | relative viability ([17]; first compound 20 µM): 0.141 | relative viability ([18]; first compound 0.2 µM): 0.789 | relative viability ([18]; first compound 0.6325 µM): 0.82 | relative viability ([18]; first compound 2 µM): 0.719 | relative viability ([18]; first compound 6.325 µM): 0.54 | relative viability ([18]; first compound 20 µM): 0.278 | relative viability ([19]; first compound 0.2 µM): 0.944 | relative viability ([19]; first compound 0.6325 µM): 1.03 | relative viability ([19]; first compound 2 µM): 0.939 | relative viability ([19]; first compound 6.325 µM): 0.798 | relative viability ([19]; first compound 20 µM): 0.578 | relative viability ([20]; first compound 0.2 µM): 1.12 | relative viability ([20]; first compound 0.6325 µM): 0.799 | relative viability ([20]; first compound 2 µM): 0.868 | relative viability ([20]; first compound 6.325 µM): 0.404 | relative viability ([20]; first compound 20 µM): 0.159
